Assay results published in patent US20230150951A1, “2,5- OR 2,6-DISUBSTITUTED HYDROQUINONE DERIVATIVES WITH AT LEAST ONE CARBOXY, SULFO OR AMIDO GROUP USEFUL AS MEDICAMENTS” (OM PHARMA SA, priority 2020, published 2023).

Assays:
[1] = test system: STZ-induced diabetes model; assay: STZ-induced diabetic nephropathy, kidney disease and retinopathy model (28 days treatment)
Experimental: A total of 70 female CD-1 mice aged 5-7 weeks weighing approximately 25-30 g were used for the study. These were purchased from Charles River, UK and had 7 days acclimatization period. Animals were housed in IVC cages (up to 5 per cage) with individual mice identified by tail mark. All animals were allowed free access to a standard certified commercial diet and sanitised water during the study. The holding room was maintained under standard conditions: 18-24° C., 55-70% humidity and a 12 h light/dark cycle.
Mice were starved for 6 hours prior to injection. One week after completion of induction glucose levels were monitored and mice with levels less than 15 mml/L (280 mg/gL) were removed from the study as they had not developed the ideal severity of diabetes. Glucose levels were be monitored weekly and 5 weeks after STZ induction biochemical assessment of renal injury was carried out by measuring urine albumin and creatinine levels and confirming they were within the desired range. After successful completion of this stage animals were assigned to treatment groups.
Treatment continued for 4 weeks (28 days) with weekly measurement of blood glucose and urine albumin/creatinine. The study schedule is detailed below looking at weekly (week 5 to 9) blood glucose levels, urine albumin creatinie ratios, and terminal (week 9) blood chemistry and cytokines, kidney histology and eye-retinal leakage.
Urine Albumin: Creatinine (ALB: CRE): Urine was collected weekly and pooled for each treatment group.
ELISAs: At the end of the treatment period blood was collected and processed to serum. Serum levels of CRP, TGF-β, IL-6 and TNF-α were quantified using commercially available ELISA kits, results are shown in Table 56.

VEGFR-2 = target: T1, VEGFR-2 (Homo sapiens, UniProt P35968); assay: VEGF-165 induced phosphorylation of VEGF-Receptor on HUVEC; format: cell-based; conditions: HUVEC preincubated 60 min, VEGF165 25 ng/mL 2 min; read-out: VEGFR-Phosphorylation inhibition IC50
T1 construct: endogenous in cells; host or cells: primary HUVEC
T1 sequence (P35968 20-1356): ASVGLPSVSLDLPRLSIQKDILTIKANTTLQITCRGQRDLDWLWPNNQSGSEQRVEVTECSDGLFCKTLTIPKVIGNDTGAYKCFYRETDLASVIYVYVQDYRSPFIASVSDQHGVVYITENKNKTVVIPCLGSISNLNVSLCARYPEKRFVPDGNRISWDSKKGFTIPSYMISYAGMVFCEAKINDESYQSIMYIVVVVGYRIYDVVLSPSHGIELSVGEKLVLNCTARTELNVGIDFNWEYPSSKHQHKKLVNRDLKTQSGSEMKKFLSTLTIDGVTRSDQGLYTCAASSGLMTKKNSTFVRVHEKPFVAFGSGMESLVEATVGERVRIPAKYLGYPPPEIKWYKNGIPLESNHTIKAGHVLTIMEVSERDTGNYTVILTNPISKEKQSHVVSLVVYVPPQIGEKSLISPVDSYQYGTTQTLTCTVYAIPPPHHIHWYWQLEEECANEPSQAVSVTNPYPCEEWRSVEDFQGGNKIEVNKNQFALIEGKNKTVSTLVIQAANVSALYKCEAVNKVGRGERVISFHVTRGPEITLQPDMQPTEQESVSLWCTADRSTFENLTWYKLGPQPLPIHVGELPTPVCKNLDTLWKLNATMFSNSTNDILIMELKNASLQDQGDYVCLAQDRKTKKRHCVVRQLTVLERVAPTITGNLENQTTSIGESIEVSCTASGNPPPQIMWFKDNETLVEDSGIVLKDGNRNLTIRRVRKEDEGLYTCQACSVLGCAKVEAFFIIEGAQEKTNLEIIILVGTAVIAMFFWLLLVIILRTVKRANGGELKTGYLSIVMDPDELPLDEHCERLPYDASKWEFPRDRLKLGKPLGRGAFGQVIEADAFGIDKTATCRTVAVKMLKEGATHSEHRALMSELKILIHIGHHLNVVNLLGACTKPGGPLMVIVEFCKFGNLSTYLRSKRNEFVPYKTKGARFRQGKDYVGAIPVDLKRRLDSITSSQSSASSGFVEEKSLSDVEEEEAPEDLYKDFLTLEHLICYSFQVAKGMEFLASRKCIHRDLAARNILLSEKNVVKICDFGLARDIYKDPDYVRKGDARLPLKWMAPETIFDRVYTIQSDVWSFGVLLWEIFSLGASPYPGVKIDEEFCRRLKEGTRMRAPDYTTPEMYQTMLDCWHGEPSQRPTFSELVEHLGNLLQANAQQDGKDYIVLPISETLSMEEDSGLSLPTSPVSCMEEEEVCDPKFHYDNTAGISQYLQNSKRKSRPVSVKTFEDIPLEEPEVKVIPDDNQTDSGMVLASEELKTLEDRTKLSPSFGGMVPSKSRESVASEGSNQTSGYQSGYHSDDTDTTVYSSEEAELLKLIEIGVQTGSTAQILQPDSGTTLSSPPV
Experimental: Cell culture: Primary human umbilical vein endothelial cells (HUVECs) were routinely cultured in 0.1% gelatin pre-coated flasks or dishes, up to passage 6. […]
Rabbit primary antibodies for VEGFR-2, p-Tyr1175 were acquired from Cell Signaling Technology (Leiden, The Netherlands). Phospho-VEGFR-2 (Tyr1175) Sandwich ELISA Kit was from Cell Signaling Technology.
[…] Western blot analysis was performed using anti-phospho-VEGFR-2 antibody and total VEGFR-2 was used as a loading control after membrane stripping.
Inhibition of VEGFR-2-phosphorylation results are expressed as IC50 in microM [μM] versus VEGF-treated HUVECs control without inhibitory compound.

Human neutrophils [2] = assay: Neutrophil adhesion under static conditions; format: cell-based; conditions: fMLP-stimulated adhesion to fibrinogen; method: 40 μM and 80 μM, concentration of the value not stated
Experimental: Human neutrophils obtained from buffy coats of healthy donors were suspended at 3×10^6/ml in adhesion buffer (PBS containing 1 mM CaCl2)/MgCl2 and 10% FCS, pH 7.2). Neutrophils were preincubated for 30 min at 37° C. with 40 μM and 80 μM of the compounds.
Adhesion assays were performed on 18-well glass slides coated for 18 h at 4° C. with human fibrinogen (20 μg/well in endotoxin-free PBS); 20 μl of cell suspension were added to each well and stimulated for 1 min at 37° C. with 5 μl of fMLP 1 nM final concentration. After washing, adherent cells were fixed in glutaraldehyde 1.5% in PBS and counted by computer-assisted enumeration. Statistical analysis was performed by calculating mean and standard deviation (SD); significance was calculated by unpaired t-test. All statistical analyses were performed using GraphPad Prism 6 (GraphPad Software).

FGF-1 = target: T2, FGF-1 (Homo sapiens, UniProt P05230); assay: FGF-1 induced sprouting of HUVEC, spheroid-based cellular angiogenesis assay; format: cell-based; conditions: FGF-1 25 ng/mL preincubated with compound, 24 h
T2 construct: purchased Peprotech 100-17A
T2 sequence (P05230 whole entry): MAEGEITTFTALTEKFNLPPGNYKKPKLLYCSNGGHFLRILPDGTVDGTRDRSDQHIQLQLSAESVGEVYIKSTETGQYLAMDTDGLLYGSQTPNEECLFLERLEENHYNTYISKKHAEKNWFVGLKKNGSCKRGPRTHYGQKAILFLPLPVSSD
Experimental: (§1) Aim of this in vitro method is to assess compounds effects on FGF-2, FGF-1, or VEGF-A induced sprouting of human umbilical vein endothelial cells (HUVEC) in the spheroid-based cellular angiogenesis assay. Before adding the growth factors to the cells, they were preincubated with the compound. Sunitinib was tested as a control (without preincubation).
(§2) IC50 values determined for the tested compounds are expressed in microM [μM] and the values for the inhibition of FGF-1, FGF2 and VEGF-A induced growth (sprouting) are listed after each compound in the examples after chemical characterization.
(§3) Sprouting test was performed on the compounds dissolved in DMSO to reach 100-fold concentrated stock solutions and dissolved in culture media. Sunitinib as reference compound was provided by ProQinase GmbH. Growth factors were purchased from rhFGF-basic (FGF-2), Peprotech, New Jersey, USA, #100-18C, Lot #0415571; rhFGF-acidic (FGF-1), Peprotech, New Jersey, USA, #100-17A, Lot #031207; hVEGF-A165 (ProQinase GmbH, Freiburg, Germany; 05.02.2010) were used for stimulation of HUVEC cells growth.
(§4) Test system: Endothelial cells from human umbilical vein (HUVEC) from pooled donors were stored frozen with 70% medium, 20% FCS, 10% DMSO at about 1×10^6 cells/ampoule. HUVEC cells, primary human umbilical vein endothelial cells (PromoCell, Heidelberg, Germany), were used after passage 3 to 4. Morphology of the cells are adherent, cobblestone-like growing as monolayer and were cultured in endothelial cell growth and basal medium (ECGM/ECBM, PromoCell). The subculture was split 1:3; every 3-5 days, seed out at ca. 1×10^4 cells/cm^2 and incubated at 37° C. with 5% CO2 with a doubling time 24-48 hours
(§5) Dilution of test compounds: 100× concentrated solutions (concerning to the final assay concentrations) of each test compound were prepared with the appropriate solvent (in DMSO or in water). These 100×compound solutions were further diluted in endothelial cell growth and basal medium (ECBM) 1:7.5 to get a 13.33× concentrated solution. 75 μl of the 13.33×solution was subsequently mixed with 25 μl of 40× concentrated stimulus (solved in ECBM), resulting in a 10×concentrated stimulus/compound mixture. This mixture (100 μl) was incubated for 30 min at 37° C. and then added to 900 μl gel, containing the HUVEC spheroids (resulting in the final assay concentration).
(§6) Test method: the experiments were pursued in modification of the originally published protocol (Korff and Augustin: J Cell Sci 112: 3249-58, 1999). In brief, spheroids were prepared as described (Korff and Augustin: J Cell Biol 143: 1341-52, 1998) by pipetting 400 HUVEC in a hanging drop on plastic dishes to allow overnight spheroid aggregation. 50 HUVEC spheroids were then seeded in 0.9 ml of a collagen gel and pipetted into individual wells of a 24 well plate to allow polymerization. The test compounds were preincubated with the growth factors (FGF-1, FGF-2 or VEGF-A final concentration 25 ng/mL) in a 10-fold concentrated solution and subsequently, 100 μl of this solution was added on top of the polymerized gel. All compounds were diluted in solvent (DMSO or water) as 100×stocks first (which means 100×stocks of each final assay concentration were prepared in solvent). Subsequently, these stocks were further diluted in medium (resulting in the 13.33×stocks of each final assay concentration) with final concentrations tested: 100, 50, 25, 12.5, 6.25, 3.13 and 1.56×10^−6 M). Plates were incubated at 37° C. for 24 hours and fixed by adding 4% PFA (Roth, Karlsruhe, Germany).
(§7) Quantification of growth factor inhibition: sprouting intensity of HUVEC spheroids treated with the growth factor and the inhibitors were quantitated by an image analysis system determining the cumulative sprout length per spheroid (CSL).

Human neutrophils [3] = assay: Inhibition of ROS production in human neutrophils (isoluminol chemiluminescence); format: cell-based; conditions: fMLP+TNF-α stimulated PMN; for inhibition at 0.3 µM / IC50: Homo sapiens, Neutrophil
Excerpt: NADPH oxidase, located in the plasma membrane and in the membranes of specific granules, produces superoxide anions from which other ROS, such as hydrogen peroxide, singlet oxygen, hypochlorite, and active hydroxyl radicals. ROS are released into the surrounding medium or into a membrane-enclosed subcellular organelle. One quick and sensitive method for measuring the generation of these metabolites is chemiluminescence (CL). Isoluminol amplified CL technique, is very sensitive and widely used to study respiratory burst (mainly extracellular production of ROS) induced in neutrophils.
Human neutrophils were isolated from buffy coats which obtained from healthy donors. The isolated neutrophils (3×10^6/ml) were suspended in Hanks' Balanced Salt Solution (HBSS) with Calcium and Magnesium. Neutrophils were pre-incubated with the compounds at different concentrations (0.1, 0.3, 1, 3 and 10 μM) for 30 min at 37° C. The black 96-well cell culture plates were coated with human fibrinogen (0.25 mg/ml in PBS), and incubated overnight at 4° C. or 2 hr at 37° C. Then the plates were washed with endotoxin-free PBS. The neutrophils were incubated (priming) with TNF-α (20 ng/ml) for 10 minutes at 37° C. Thereupon the 75 μl of cell suspension and 75 μl (Isoluminol+HRP solution) were added to each well. The chemiluminescence was recorded (every 25 sec for 250 sec) after fMLP (1 μM) activation using a Multilabel Reader victor3 (Perkin Elmer, USA). Background values, defined as the mean chemiluminescent values of isoluminol diluted in HBSS, were subtracted from all readings (CPS, count per second). The assays were done in duplicate or triplicate.

FGF-2 = target: T3, FGF-2 (Homo sapiens, UniProt P09038); assay: FGF-2 induced sprouting of HUVEC, spheroid-based cellular angiogenesis assay; format: cell-based; conditions: FGF-2 25 ng/mL preincubated with compound, 24 h
T3 construct: purchased Peprotech 100-18C
T3 sequence (P09038 134-288): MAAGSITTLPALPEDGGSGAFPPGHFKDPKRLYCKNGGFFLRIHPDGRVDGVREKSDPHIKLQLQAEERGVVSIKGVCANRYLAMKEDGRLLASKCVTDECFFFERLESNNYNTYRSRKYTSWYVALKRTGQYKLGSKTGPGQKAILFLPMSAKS
Experimental: as §1, §2, §3, §4, §5, §6, §7

[4] = day 28 of treatment (week 9), 15 mg/kg IV, Captopril 50 mg/kg PO
[5] = day 28 of treatment (week 9), serum, 15 mg/kg IV, Captopril 50 mg/kg PO

Structure (SMILES) | IC50 (VEGFR-2) | IC50 (FGF-1) | IC50 (FGF-2) | Neutrophil adhesion inhibition (Human neutrophils [2]) | inhibition at 0.3 µM (Human neutrophils [3]; 0.3 μM) | other results
C[C@H](CS)C(=O)N1CCC[C@H]1C(=O)O [Captopril, reference compound] | – | – | – | – | – | Serum CRP ([1]; 28 days of treatment, vs vehicle induced controls): significantly reduced; Mean day 0 blood glucose Concentration (mmol/L) (SD) ([1]; day 0, 15 mg/kg IV, Captopril 50 mg/kg PO): 23.7 (6.9) mmol/L; Mean day 28 blood glucose Concentration (mmol/L) (SD) ([1]; day 28, 15 mg/kg IV, Captopril 50 mg/kg PO): 32.2 (2.3) mmol/L; Blood BUN [1, 4]: 28.5 ± 7.6; Disease Score (kidney, H&E) [1, 4]: 6 ± 1; Eye area (retinal flatmount area covered by vasculature) [1, 4]: 11.8 ± 1.4; Trichrome staining (Kidney fibrosis) [1, 4]: 1.98 ± 0.47; Blood CRP [1, 5]: 4534 ± 821; Blood IL-6 [1, 5]: 125.56 ± 15.75; Blood TGF-beta [1, 5]: 14.55 ± 2.86; Blood TNF-alpha [1, 5]: 415 ± 51.7; Urine albumine creatinine ratio (ALB:CRE) ([1]; day 28 of treatment (week 9), urine pooled per group, 15 mg/kg IV, Captopril 50 mg/kg PO): 24.40
O=C(O)c1cc(O)cc(C(=O)Nc2ccccc2S(=O)(=O)O)c1O [IIa-001c, 2,5-dihydroxy-3-(2-sulfophenylaminocarbonyl)benzoic acid] | – | – | 71 µM | 43.53% | 72.6% | –
O=C(O)c1cccc(NC(=O)c2cc(O)cc(C(=O)O)c2O)c1 [IIa-002a, 3-(3-carboxyphenylaminocarbonyl)-2,5-dihydroxybenzoic acid] | – | 19 µM | 131 µM | 17.39% | 43.3% | IC50 (Human neutrophils [3]): 0.299 µM
O=C(O)c1cc(NC(=O)c2cc(O)cc(C(=O)O)c2O)cc(C(=O)O)c1 [IIa-015a, 5-(3-carboxy-2,5-dihydroxybenzamido)isophthalic acid] | – | – | 125 µM | – | – | –
O=C(O)c1cc(O)c(C(=O)Nc2cccc(S(=O)(=O)O)c2)cc1O [Ia-002c, 2,5-dihydroxy-4-(3-sulfophenylaminocarbonyl)benzoic acid] | ≥ 100 µM | 14 µM | – | 1.87% | 38.9% | IC50 (Human neutrophils [3]): 0.405 µM
O=C(O)c1ccc(NC(=O)c2cc(O)c(C(=O)O)cc2O)cc1 [Ia-003a, 4-(4-carboxyphenyl-aminocarbonyl)-2,5-dihydroxybenzoic acid] | – | 12 µM | 34 µM | 39.1% | 44.4% | IC50 (Human neutrophils [3]): 0.414 µM
O=C(O)c1cc(O)c(C(=O)Nc2ccc(S(=O)(=O)O)cc2)cc1O [Ia-003c, 2,5-dihydroxy-4-(4-sulfophenylaminocarbonyl)benzoic acid] | 0.4 µM | 35 µM | – | – | – | –
O=C(O)Cc1ccc(NC(=O)c2cc(O)c(C(=O)O)cc2O)cc1 [Ia-032a, 4-(4-(carboxymethyl)phenylaminocarbonyl)-2,5-dihydroxybenzoic acid] | ≥ 100 µM | – | 91 µM | – | – | –
CCOC(=O)c1cc(NC(=O)c2cc(OC(C)=O)c(C(=O)OCC)cc2OC(C)=O)cc(NC(=O)c2cc(OC(C)=O)c(C(=O)OCC)cc2OC(C)=O)c1 [Ib-010a-E3-A4, ethyl 3,5-bis(2,5-diacetoxy-4-ethoxycarbonylbenzoylamino)benzoate] | 0.54 µM | ≥ 200 µM | – | 96% | 54.9% | IC50 (Human neutrophils [3]): 1.49 µM

Continued, in another order:

IC50 (VEGFR-2) | IC50 (FGF-1) | IC50 (FGF-2) | Structure (SMILES) | Neutrophil adhesion inhibition (Human neutrophils [2]) | inhibition at 0.3 µM (Human neutrophils [3]; 0.3 μM) | other results
0.32 µM | ≥ 200 µM | – | CCOC(=O)Cc1cc(O)c(C(=O)Nc2ccccc2-c2nnn[nH]2)cc1O [IIIa-001aTz-E1, ethyl (4-(2-(1H-tetrazol-5-yl)phenylaminocarbonyl)-2,5-dihydroxyphenyl)acetate] | 91.76% | 70% | –
0.65 µM | – | – | CCOC(=O)Cc1cc(O)c(C(=O)Nc2cc(NC(=O)c3cc(O)c(CC(=O)OCC)cc3O)cc(C(=O)OC)c2)cc1O [IIIb-010a-E3, methyl 3,5-bis(4-(ethoxycarbonylmethyl)-2,5-dihydroxybenzamido)benzoate] | 0% | – | –
– | – | 35 µM | O=C(O)c1cc(O)c(CNCc2cc(O)c(C(=O)O)cc2O)cc1O [IIIc-056a, Bis(4-carboxy-2,5-dihydroxyphenylmethyl)amine] | 35% | 90.1% | –
0.34 µM | – | – | CCOC(=O)c1cc(O)c(CN(Cc2cc(O)c(C(=O)OCC)cc2O)Cc2cc(O)c(C(=O)OCC)cc2O)cc1O [IIIc-061a-E3] | 10.4% | – | –
– | – | 164 µM | CCOC(=O)Cc1ccccc1NC(=O)c1cc(O)cc(C(=O)OCC)c1O [IIa-034a-E2, ethyl 3-(2-(ethoxycarbonylmethyl)phenylaminocarbonyl)-2,5-dihydroxybenzoate] | 11.86% | 68.7% | –
0.33 µM | 115 µM | – | CCOC(=O)c1cc(O)c(-c2nc3c(C(=O)OC)cccc3[nH]2)cc1O [Id-030a-E2] | 43% | – | PMN ROS inhibition at 0.3 μM (Human neutrophils [3]; 0.3 μM): 0%
